Here are results for two sequences from patent US10765761B2, “Nucleic acid condensing peptide, nucleic acid condensing peptide set, nucleic acid delivery carrier, nucleic acid delivery method, cell production method, cell detection method and kit” (KABUSHIKI KAISHA TOSHIBA, priority 2016, dated 2020).

One data set deals with plasmid vector (pDNA). The data set can be described thus: Gel retardation assay: condensability and dissociation, Example 2. Type of data set: binding. The conditions noted are these: 0.8% agarose gel, samples of any concentration (FIG. 6); for dissociation: PGA (+) sample; for condensability: PGA (-) sample. As for the experimental part: The condensability of the nucleic acid by the peptide of the embodiment and the dissociation of the peptide and the nucleic acid were estimated by a gel retardation assay.
As samples for the condensability evaluation, 18 sets of 8.0 μL of 10 mM-HEPES (pH: 5.3) were prepared and 1.0 μL of the respective peptide-nucleic-acid solutions of Example 1 and […] were added thereto and mixed, thus preparing mixtures. As samples for the dissociation evaluation, 1.0 μL of peptide-nucleic-acid solutions and 1.0 μL of poly-glutamic-acid (PGA) solutions were added to 8.0 μL of 10 mM-HEPES solutions (pH: 5.3) and mixed, thereby preparing mixtures. After they were let stand still for 15 minutes at room temperature, 1.0 μL of an electrophoretic buffer (50%-sucrose solution) was added to each mixture, and they were mixed well, to carry out electrophoresis with a 0.8%-agarose gel. After the electrophoresis, the nucleic acid dyed with ethidium bromide was visualized by UV irradiation, and the nucleic acids condensed by the peptide and the nucleic acid dissociating with the peptide and moving into a gel were detected.
FIG. 6 is a photograph showing the agarose gel subjected to UV irradiation. Of two lanes indicated by the numbers of the respective samples, the left lane indicates the results of a PGA (−) sample (sample for the condensability evaluation) and the right lane for those of a PGA (+) sample (sample for the dissociation evaluation). When an integrated band with a large molecular weight, which strongly shines is observed in the left lane, it was evaluated as a high condensability. […] The mHP-1 and mHP-3 were excellent both in condensability and dissociation in the samples of any concentration. In particular, they were excellent in the peptide-nucleic-acid solutions (8) and (16).

A further data set concerns nucleic acid. The experiment in a line: Gel retardation assay: encapsulation of nucleic acid to liposome, Example 4. To be noted: Complex with SDS 1% (liposome cleaved), 0.8% agarose gel (FIG. 9). As for the experimental part: The encapsulation of nucleic acid to liposome by the peptide of the embodiment was evaluated with a gel retardation assay.
As samples for the encapsulation evaluation, two sets of 8.0 μL of 10 mM-HEPES (pH: 7.0) were prepared and 1.0 μL of solutions of Complex respectively containing the mHP-1 or mHP-3 of Example 3 and sodium dodecyl sulfate (SDS, the final concentration: 1%) which cleavages liposome were added thereto, to prepare mixtures. In addition, as controls, a mixture to which 1.0 μL of a poly-glutamic-acid (PGA) solution was added in place of SDS, and a sample which contains neither SDS nor PGA were prepared. After the solutions were let stand still for 15 minutes at room temperature, 1.0 μL of an electrophoretic buffer (50%-sucrose solution) was added to each mixture, and they were mixed well, to carry out electrophoresis with a 0.8%-agarose gel. After the electrophoresis, the gel was immersed in an ethidium bromide solution to dye the nucleic acid and the gel was photographed while irradiating it with UV, thus detecting the nucleic acid.
FIG. 9 is a photograph taken by irradiating the agarose gel with UV.

In a further data set the test system is plasmid. The data set can be described thus: Amount of encapsulation of plasmid in liposome (Quant-iT PicoGreen dsDNA assay kit), Example 3. The class given is physicochemical. The procedure: COATSOME/SS-20 (Nippon Oil & Fats), DOPE, cholesterol and DMG-PEG were dissolved into ethanol at a molar ratio of 5:3:1:0.3, to obtain a lipid solution. Two sets of lipid solutions (0.5 ml) put into tubes were prepared, and 0.5 ml of peptide-nucleic-acid solutions (8) (mHP-1) and (16) (mHP-3) of Example 1 were dropped thereto while stirring each lipid solution, thereby forming liposomes. 9 ml of 10 mM-HEPES (pH: 5.3) was added to each of the liposome solutions to make a total amount of 10 ml (each liposome solution will be referred to as “Complex” hereinafter). Further, on an assumption that the liposome is taken into an organism, and liposome solutions (which will be referred to as “HEPES replacement”) in which ethanol, which is the solvent of Complex is substituted by HEPES were produced. The HEPES replacements were produced by condensing each solution of Complex to 1.5 ml with an ultrafiltration film for 300 kDa, adding 8.5 ml of 100 mM-HEPES (pH: 7.4) to each, performing ultrafiltration, thereafter substituting the solvent with 10 mM-HEPES (pH: 7.4), and finally condensing to 0.5 ml. Further, the HEPES replacements were filtered for sterilization with a filter with a pore diameter of 0.45 μm to prepare solutions (which will be referred to as “0.45 μm” hereinafter).
The “peptide-nucleic-acid solution”, “HEPES substituent” and “0.45 micrometer”, each of which contain the protamine, mHP-1 or mHP-3 prepared as above were examined in terms of average particle diameter of liposome, Zeta potential and amount of encapsulation of plasmid. The average particle diameter and Zeta potential were measured using a zetasizer. The amount of encapsulation of plasmid was measured using a Quant-iT PicoGreen (registered trademark) dsDNA assay kit.

With “RQRQRGGRRRRRR (Nucleic acid condensing peptide) [mHP-3]”, the dissociation entry in the data set with plasmid vector (pDNA) was “excellent”. For the same sequence, the condensability result with plasmid vector (pDNA) is “excellent”. In addition, the “encapsulation of nucleic acid in liposome” value with nucleic acid is given as “encapsulated well”. Further, the Plasmid inclusion amount with plasmid (0.45 μm filtered) stood at 84.14 µg/mL; with plasmid (HEPES substitution) it was 96.94 µg/mL.
Consider “RQRQRYYRQRQRGGRRRRRR (Nucleic acid condensing peptide) [mHP-1]”, for which, in the data set with plasmid vector (pDNA), the dissociation entry is listed as “excellent” and the condensability result is on record as “excellent”. Further, the “encapsulation of nucleic acid in liposome” value in the data set with nucleic acid is reported as “encapsulated well”. This sequence displayed a Plasmid inclusion amount with plasmid (0.45 μm filtered) of 37.30 µg/mL. The same sequence came in with a Plasmid inclusion amount in the data set on plasmid (HEPES substitution) of 42.12 µg/mL.
